Test results taken from patent publication US20080262008A1, “CRYSTALLINE FORMS AND POLYMORPHS OF N-(3-(DIMETHYLAMINO)PROPYL)-4-(4-(3-FLUORO-4-METHOXYPHENYL) PYRIMIDIN-2-YLAMINO) BENZENESULFONAMIDE AS SUCCINATE SALTS” (Wyeth, priority 2007, published 2008).

Columns and labels:
[1] = solubility of the free base in solvents; type: physicochemical; details: free base form
Description: For example, acetone is needed to dissolve the free base at 50° C. […] HCl, phosphoric acid, tartaric acid, acetic acid, D-glucoronic acid and succinic acid were used to prepare pharmaceutically acceptable salts of compound 3. One crystalline form of compound 3 as a mono-succinate salt and five crystalline polymorphs of compound 3 as a hemi-succinate salt are provided in the Examples.

water solubility = type: physicochemical

solubility in THF, DMSO and DMF [1] | solubility in group 3 solvents, including water [1] | Solubility in water (water solubility; free base, thermogravimeteric method) | water solubility (stated in words) (water solubility) | SMILES
high | low | not detectable |  | COc1ccc(-c2ccnc(Nc3ccc(S(=O)(=O)NCCCN(C)C)cc3)n2)cc1F [Compound 3, N-(3-(dimethylamino)propyl)-4-(4-(3-fluoro-4-methoxyphenyl)pyrimidin-2-ylamino)benzenesulfonamide]
 |  |  | water soluble | COc1ccc(-c2ccnc(Nc3ccc(S(=O)(=O)NCCCN(C)C)cc3)n2)cc1F.O=C(O)CCC(=O)O [Example 1, Mono-Succinate Salt of N-(3-(dimethylamino)propyl)-4-(4-(3-fluoro-4-methoxyphenyl)pyrimidin-2-ylamino)benzenesulfonamide]
